Tested on: rabbit skeletal myofibrils (approximately 90% fast fibers)
Experiment: Activation of fast skeletal myofibrils (PUMA coupled-enzyme ATPase assay, AC1.4)
Type: biochemical
Conditions: concentration at which the compound increased enzymatic activity by 40%, calcium at pCa25

SMILES | Mean AC1.4 (Table 2) | other results
NC(=O)c1cccc(-c2nsc(NCCc3ccccc3)n2)c1 [3-{5-[(2-phenylethyl)amino]-1,2,4-thiadiazol-3-yl}benzamide] | C (C=10-20 uM) | 
Fc1ccc(Br)cc1-c1nnc(NCC2(c3ncccc3F)CCC2)s1 [5-(5-bromo-2-fluorophenyl)-N-((1-(3-fluoropyridin-2-yl)cyclobutyl)methyl)-1,3,4-thiadiazol-2-amine] |  | Mean AC1.4 (Table 3): A (A=<1 uM)
CC(C)(CNc1nc(CCC(=O)NCCO)ns1)c1ccc(F)cc1 [3-(5-{[2-(4-fluorophenyl)-2-methylpropyl]amino}(1,2,4-thiadiazol-3-yl))-N-(2-hydroxyethyl)propanamide] | C (C=10-20 uM) | 
Fc1cccnc1[C@]1(CNc2nnc(-c3ccc(Br)s3)s2)C[C@@H](F)C1 [5-(5-bromothiophen-2-yl)-N-(((trans)-3-fluoro-1-(3-fluoropyridin-2-yl)cyclobutyl)methyl)-1,3,4-thiadiazol-2-amine] |  | Mean AC1.4 (Table 3): B (B=1-10 uM)
CC(C)(CNc1nc2c(C#N)cccc2s1)c1ccc(F)cc1 [2-(2-(4-fluorophenyl)-2-methylpropylamino)benzo[d] thiazole-4-carbonitrile] |  | Mean AC1.4 (Table 4): A (A=<1 uM)
CN(CC(C)(C)c1ccc(F)cc1)c1nc(Cc2cccc(O)c2)ns1 [3-[(5-{[2-(4-fluorophenyl)-2-methylpropyl]methylamino}-1,2,4-thiadiazol-3-yl)methyl]phenol] | D (D=>20 uM) | 
CC(C)(CNc1nc(-c2ccc(F)c(C#N)c2)ns1)c1ccc(F)cc1 [2-fluoro-5-(5-{[2-(4-fluorophenyl)-2-methylpropyl]amino}(1,2,4-thiadiazol-3-yl))benzenecarbonitrile] | B (B=1-10 uM) | 
NC(=O)c1ccc(Cl)c(-c2nnc(NC[C@]3(c4ncccc4F)C[C@H](F)C3)s2)c1 [4-chloro-3-(5-((3-fluoro-1-(3-fluoropyridin-2-yl)cyclobutyl)methylamino)-1,3,4-thiadiazol-2-yl)benzamide] |  | Mean AC1.4 (Table 3): A (A=<1 uM)
CC(C)(CNc1nc2c(Cl)cc(C#N)cc2s1)c1ccc(F)cc1 [4-chloro-2-(2-(4-fluorophenyl)-2-methylpropylamino)benzo[d] thiazole-6-carbonitrile] |  | Mean AC1.4 (Table 4): A (A=<1 uM)
CC(C)(Nc1nnc(-c2cc(C#N)ccc2F)o1)c1ccc(F)cc1 [4-fluoro-3-(5-(2-(4-fluorophenyl)propan-2-ylamino)-1,3,4-oxadiazol-2-yl)benzonitrile] |  | Mean AC1.4 (Table 5): D (D=>20 uM)
Fc1cccnc1C1(CNc2nnc(-c3ccccc3)o2)CCC1 [N-((1-(3-fluoropyridin-2-yl)cyclobutyl)methyl)-5-phenyl-1,3,4-oxadiazol-2-amine] |  | Mean AC1.4 (Table 5): D (D=>20 uM)
Cc1cc(C#N)sc1-c1nnc(NC[C@]2(c3ncccc3F)C[C@H](F)C2)s1 [5-(5-((3-fluoro-1-(3-fluoropyridin-2-yl)cyclobutyl)methylamino)-1,3,4-thiadiazol-2-yl)-4-methylthiophene-2-carbonitrile] |  | Mean AC1.4 (Table 3): B (B=1-10 uM)
NC(=O)c1cccc(-c2nnc(NC[C@]3(c4ncccc4F)C[C@H](F)C3)s2)c1 [3-(5-(((trans)-3-fluoro-1-(3-fluoropyridin-2-yl)cyclobutyl)methylamino)-1,3,4-thiadiazol-2-yl)benzamide] |  | Mean AC1.4 (Table 3): B (B=1-10 uM)
CN(C)c1nc(-c2cccc(C(N)=O)c2)ns1 [3-[5-(dimethylamino)-1,2,4-thiadiazol-3-yl]benzamide] | D (D=>20 uM) | 
CC(C)(CNc1nc(-c2cncc(C(N)=O)c2)ns1)c1ccc(F)cc1 [5-(5-{[2-(4-fluorophenyl)-2-methylpropyl]amino}-1,2,4-thiadiazol-3-yl)pyridine-3-carboxamide] | A (A=<1 uM) | 
CC(C)(CNc1nc2c(C(N)=O)cccc2s1)c1ccc(F)cc1 [2-(2-(4-fluorophenyl)-2-methylpropylamino)benzo[d] thiazole-4-carboxamide] |  | Mean AC1.4 (Table 4): C (C=10-20 uM)
Fc1ccc(C2(CNc3nc4ccc(Cl)cc4s3)CCC2)cc1 [6-chloro-N-((1-(4-fluorophenyl)cyclobutyl)methyl) benzo[d]thiazol-2-amine] |  | Mean AC1.4 (Table 4): A (A=<1 uM)
CC(C)(CNc1nc(-c2ccc(C#N)c(F)c2)ns1)c1ccc(F)cc1 [2-fluoro-4-(5-{[2-(4-fluorophenyl)-2-methylpropyl]amino}(1,2,4-thiadiazol-3-yl))benzenecarbonitrile] | B (B=1-10 uM) | 
Fc1cccnc1C1(CNc2nnc(Cc3ccccc3)s2)CCC1 [5-benzyl-N-((1-(3-fluoropyridin-2-yl)cyclobutyl)methyl)-1,3,4-thiadiazol-2-amine] |  | Mean AC1.4 (Table 3): D (D=>20 uM)
CC(C)(CNc1nc(-c2ccc(O)cc2)ns1)c1ccc(F)cc1 [4-(5-{[2-(4-fluorophenyl)-2-methylpropyl]amino}-1,2,4-thiadiazol-3-yl)phenol] | A (A=<1 uM) | 
Fc1cccnc1[C@]1(CNc2nnc(-c3ccc(Br)s3)s2)C[C@H](F)C1 [5-(5-bromothiophen-2-yl)-N-(((cis)-3-fluoro-1-(3-fluoropyridin-2-yl)cyclobutyl)methyl)-1,3,4-thiadiazol-2-amine] |  | Mean AC1.4 (Table 3): C (C=10-20 uM)
Oc1ccc(CCNc2nc(Cc3ccc(F)cc3)ns2)cc1 [4-[2-({3-[(4-fluorophenyl)methyl]-1,2,4-thiadiazol-5-yl}amino)ethyl]phenol] | D (D=>20 uM) | 
CC(C)(CNc1nc2cccc(C#N)c2s1)c1ccc(F)cc1 [2-(2-(4-fluorophenyl)-2-methylpropylamino)benzo[d] thiazole-7-carbonitrile] |  | Mean AC1.4 (Table 4): B (B=1-10 uM)
NC(=O)c1cccc(-c2nc(NCCc3ccccc3)ns2)c1 [3-(3-(phenethylamino)-1,2,4-thiadiazol-5-yl)benzamide] | D (D=>20 uM) | 
C[C@H](CNc1nc(-c2cncc(C#N)c2)ns1)c1ccc(F)cc1 [5-(5-{[(2S)-2-(4-fluorophenyl)propyl]amino}-1,2,4-thiadiazol-3-yl)pyridine-3-carbonitrile] | C (C=10-20 uM) | 
Fc1cccnc1[C@]1(CNc2nnc(-c3cc(Br)ccc3Cl)s2)C[C@H](F)C1 [5-(5-bromo-2-chlorophenyl)-N-(((cis)-3-fluoro-1-(3-fluoropyridin-2-yl)cyclobutyl)methyl)-1,3,4-thiadiazol-2-amine] |  | Mean AC1.4 (Table 3): A (A=<1 uM)
NC(=O)c1ccc(F)c(-c2nnc(NC[C@]3(c4ncccc4F)C[C@H](F)C3)s2)c1 [4-fluoro-3-(5-((3-fluoro-1-(3-fluoropyridin-2-yl)cyclobutyl)methylamino)-1,3,4-thiadiazol-2-yl)benzamide] |  | Mean AC1.4 (Table 3): A (A=<1 uM)
CC(C)(CNc1nc(CNC(=O)CN)ns1)c1ccc(F)cc1 [2-amino-N-[(5-{[2-(4-fluorophenyl)-2-methylpropyl]amino}(1,2,4-thiadiazol-3-yl))methyl]acetamide] | C (C=10-20 uM) | 
CC(C)(Nc1nnc(-c2cc(Br)ccc2F)s1)c1ncccc1F [5-(5-bromo-2-fluorophenyl)-N-(2-(3-fluoropyridin-2-yl)propan-2-yl)-1,3,4-thiadiazol-2-amine] |  | Mean AC1.4 (Table 3): B (B=1-10 uM)

Second part, led by results:

Mean AC1.4 (Table 2) | SMILES | other results
A (A=<1 uM) | CC(C)(CNc1nc(-c2ccc3[nH]nc(N)c3c2)ns1)c1ccc(F)cc1 [[3-(3-amino(1H-indazol-5-yl))(1,2,4-thiadiazol-5-yl)][2-(4-fluorophenyl)-2-methylpropyl]amine] | 
D (D=>20 uM) | Fc1ccc(Cc2nsc(NCCc3ccccc3)n2)cc1 [{3-[(4-fluorophenyl)methyl](1,2,4-thiadiazol-5-yl)}(2-phenylethyl)amine] | 
D (D=>20 uM) | CC(C)(CNc1nc(CN2CCCCC2)ns1)c1ccc(F)cc1 [[2-(4-fluorophenyl)-2-methylpropyl][3-(piperidylmethyl)(1,2,4-thiadiazol-5-yl)]amine] | 
D (D=>20 uM) | Fc1ccc(Cc2nsc(NCCc3ccccc3Cl)n2)cc1 [[2-(2-chlorophenyl)ethyl]{3-[(4-fluorophenyl)methyl](1,2,4-thiadiazol-5-yl)}amine] | 
C (C=10-20 uM) | CC(C)(CNc1nc(CN2CCNCC2)ns1)c1ccc(F)cc1 [[2-(4-fluorophenyl)-2-methylpropyl][3-(piperazinylmethyl)(1,2,4-thiadiazol-5-yl)]amine] | 
D (D=>20 uM) | CC(C)(CNc1nc(CN2CCCC2)ns1)c1ccc(F)cc1 [[2-(4-fluorophenyl)-2-methylpropyl][3-(pyrrolidinylmethyl)(1,2,4-thiadiazol-5-yl)]amine] | 
B (B=1-10 uM) | CN(C)C(=O)c1cccc(-c2nsc(NCC(C)(C)c3ccc(F)cc3)n2)c1 [[3-(5-{[2-(4-fluorophenyl)-2-methylpropyl]amino}(1,2,4-thiadiazol-3-yl))phenyl]-N,N-dimethylcarboxamide] | 
D (D=>20 uM) | CC(C)(C)OC(=O)N1CCN(Cc2nsc(NCC(C)(C)c3ccc(F)cc3)n2)CC1 [tert-butyl 4-[(5-{[2-(4-fluorophenyl)-2-methylpropyl]amino}-1,2,4-thiadiazol-3-yl)methyl]piperazinecarboxylate] | 
D (D=>20 uM) | COc1ccc(CCNc2nc(Cc3cccc(OC)c3)ns2)cc1 [[2-(4-methoxyphenyl)ethyl]{3-[(3-methoxyphenyl)methyl](1,2,4-thiadiazol-5-yl)}amine] | 
B (B=1-10 uM) | COC(=O)NCc1nsc(NCC(C)(C)c2ccc(F)cc2)n1 [N-[(5-{[2-(4-fluorophenyl)-2-methylpropyl]amino}(1,2,4-thiadiazol-3-yl))methyl]methoxycarboxamide] | 
B (B=1-10 uM) | CC(C)Cc1nsc(NCC(C)(C)c2ccc(Cl)cc2)n1 [[2-(4-chlorophenyl)-2-methylpropyl][3-(2-methylpropyl)(1,2,4-thiadiazol-5-yl)]amine] | 
B (B=1-10 uM) | CC(C)(CNc1nc(CCCNC(=O)CO)ns1)c1ccc(F)cc1 [N-[3-(5-{[2-(4-fluorophenyl)-2-methylpropyl]amino}(1,2,4-thiadiazol-3-yl))propyl]-2-hydroxyacetamide] | 
A (A=<1 uM) | COc1ccc(Cc2nsc(NCC(C)(C)c3ccc(F)cc3)n2)cc1 [[2-(4-fluorophenyl)-2-methylpropyl]{3-[(4-methoxyphenyl)methyl](1,2,4-thiadiazol-5-yl)}amine] | 

Reference: patent publication US9278962B2 (Cytokinetics, Inc., priority 2011, dated 2016)
